The target in data set [1] is T1, Aβ40 (Homo sapiens, UniProt P05067).
T1 construct: Cleavage of APP results in several Aβ isoforms; The predominant species are Aβ42 and Aβ40; purchased Anaspec (Fremont, Calif., USA)
Put plainly: Circular dichroism (CD) spectroscopy of Aβ40. Conditions: Aβ40, equimolar ratio. The format is biochemical. As to the method:
A second set of compounds was identified as potent inhibitors of Aβ aggregation. In contrast to ADH-41, they are negatively charged. […] The absorbance increased gradually from 0 to 6 h indicating an increase in the amount of soluble oligomers of Aβ42. […] A time-dependent increase in the amount of the A11-sensitive Aβ42 oligomeric structures was reflected in the progressive enhancement in the chemiluminescence intensity of the dots, which reached a maximum intensity around 6 h (FIG. 27g). The intensity decreased after 12 h, due to formation of fibers that are not sensitive to the A11 antibody. […] The far UV-CD spectrum of a sample of 20 μM Aβ40 transitioned from that of a random coil to a β-sheet conformation over 24 h (FIG. 27h).
(§1) A freshly prepared stock solution of Aβ42 (500 μM) was diluted to 15 μM in phosphate buffer for CD measurements. The spectra of Aβ42 in the absence and presence of the compounds of the invention were recorded at 0.5 nm intervals from 190 to 260 nm with an averaging time of 10 sec. and an average of three repeats on a Aviv Stopped Flow CD Spectropolarimeter (Model 202SF).

Data set [2] addresses T2, IAPP (Homo sapiens, UniProt P10997).
T2 construct: purchased Anaspec (Fremont, Calif., USA)
T2 sequence (P10997 34-70 limits assumed): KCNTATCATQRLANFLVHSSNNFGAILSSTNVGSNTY
The data set is described as follows: Lipid (LUV) catalyzed IAPP aggregation, ThT. The format is biochemical. Conditions: 10 μM IAPP, LUVs (DOPG:DOPC 1:1, 600 μM), equimolar ratio. As to the method: LUVs were prepared using an equimolar ratio of dioleoylphosphatidylglycerol (DOPG) and dioleoylphosphatidylcholine (DOPC). A solution of DOPG and DOPC (10 mg/mL each) in chloroform was mixed, dried over a stream of argon (g) for 1 h, and then lyophilized for 6 h (0.1×10^−3 bar). The solid was then rehydrated in 1 mL phosphate buffer for 30 min. The turbid solution (10 mg/mL, 1:1, DOPG:DOPC) was then extruded (21 times) through 100 nm diameter filters (Whatman, GE Healthcare, Marlborough, Mass., USA). The concentration of the phospholipid content in the extruded material was confirmed by calculating total phosphorus using total phosphate assay as described in Chen, P. S.; Toribara, T. Y.; Warner, H. Anal. Chem. 1956, 28, 1756-1758.
The effect of the α-helical mimetics was also assessed on the membrane associated α-helical conformation of IAPP.

Data set [3] concerns the target T3, Aβ42 (Homo sapiens, UniProt P05067).
T3 construct: Cleavage of APP results in several Aβ isoforms; The predominant species are Aβ42 and Aβ40; purchased Anaspec (Fremont, Calif., USA)
The data set is described as follows: Dynamic light scattering of Aβ42 species. The format is biochemical. As to the method: The particle size distribution of 5 μM Aβ42 increased from a range of hydrodynamic radii of 40-80 nm to 100-500 nm after incubation for 24 h (FIG. 4a).

Data set [4] in a line: DLS and UV-Vis probe of colloidal aggregation of the compound. The data set is classed as physicochemical. As to the method:
UV-Vis was employed to probe the chemical aggregation of ADH-41 under kinetic assay conditions. The measurements were carried out on a double beam Carry 100 Bio spectrophotometer (Agilent Technologies, Santa Clara, Calif.) controlled by Cary WinUV software (version=3.0).
Dynamic light scattering (DLS) and ultraviolet-visible (UV-Vis) spectroscopy was employed to probe the micelle forming capacity of ADH-41.

In data set [5] the test system is N2a cells. Put plainly: Confocal fluorescence microscopy, cellular uptake. The format is cell-based, mouse. Conditions: 24 h incubation. As to the method: N2a cells were seeded at a density of 5×10^4 cells/well in 500 μL complete medium in 4-chambered 35 mm glass bottom Cellview cell culture dishes (Greiner Bio-One, Monroe, N.C., USA). […] For mitochondrial colocalization experiments, 50 nM MitoTracker Red FM or MitoTracker Green FM (Thermo Fisher Scientific, Waltham, Mass., USA) was added to the chambers and incubated for 15 min. Thereafter, the medium was removed, the cells were washed with PBS to remove any extracellular peptide, inhibitor or organelle marker, and 300 μL phenol red- and serum-free medium was added to each chambers of the cell culture dish. Imaging was done on an Olympus Fluoview FV1000MPE Confocal/2—Photon microscope, using a 63× Plan-Apo/1.3 NA oil immersion objective with DIC capability. Image processing was done using the Fiji image processing software according to known methodology (Schindelin, J.; Arganda-Carreras, I.; Frise, E.; Kaynig, V.; Longair, M.; Pietzsch, T.; Preibisch, S.; Rueden, C.; Saalfeld, S.; Schmid, B.; Tinevez, J. Y.; White, D. J.; Hartenstein, V.; Eliceiri, K.; Tomancak, P.; Cardona, A. Nat. Methods 2012, 9, 676-682).

Data set [6] concerns the target T4, Aβ12-28 (Homo sapiens, UniProt P05067).
T4 construct: Aβ12-28, a well-characterized subdomain of Aβ42; purchased Anaspec (Fremont, Calif., USA)
The data set is described as follows: Circular dichroism (CD) spectroscopy of Aβ12-28. Conditions: Aβ12-28, 20% TFE, equimolar ratio. The format is biochemical. A general note: Circular dichroism is the unequal absorption of left and right circularly polarised light.

For data set [7], the target named is T1, Aβ40. The data set is described as follows: Seed-catalyzed kinetic assay, Aβ40. The format is biochemical. Conditions: 20 μM Aβ40, 10% seeds, equimolar ratio. The procedure: Seeds of Aβ40/Aβ42 were prepared by incubating 200 μM of Aβ40/Aβ42 in phosphate buffer at room temperature. The samples were aged for 48 h and the formation of fibers was confirmed by TEM and ThT before storage at −20° C. until use. For the aggregation of Aβ40, 10% (based on the monomeric Aβ40, v/v) seeds were added along with ThT in phosphate buffer to the 96-well plate. The aggregation was initiated by the addition of monomeric Aβ40 followed by gentle mixing. The process was similar in the case of Aβ42 except that the seed concentration was 5% (based on the monomeric Aβ42, v/v).
The seeds were generated by aging 200 μM Aβ peptides for 48 h in phosphate buffer with occasional vortexing. The concentration of seeds was calculated based on the monomeric concentration of Aβ.

The target in data set [8] is T3, Aβ42. The data set is described as follows: Circular dichroism (CD) spectroscopy of Aβ42. The data set is classed as biochemical. Conditions: 15 μM Aβ42, equimolar ratio, after 24 h. The procedure:
as §1

T1 sequence (P05067 672-711 limits assumed): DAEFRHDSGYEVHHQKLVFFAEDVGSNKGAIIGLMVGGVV
T3 sequence (P05067 672-713 limits assumed): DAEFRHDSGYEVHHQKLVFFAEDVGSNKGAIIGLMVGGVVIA

For the compound `COC(=O)c1ccc(NC(=O)c2ccc(NC(=O)c3ccc(NC(=O)c4ccc([N+](=O)[O-])c(OCC(C)C)n4)c(OCc4ccccc4)n3)c(OCC(=O)O)n2)c(OCC(=O)O)n1` [ADH-31], the “β-sheet formation of Aβ40 (far UV-CD)” value in data set [1] is reported as “no β-sheet formation was observed”. The “conformation of Aβ40 (far UV-CD)” value in data set [1] (stable after 48 h) was “adopts an α-helical conformation”.

Consider `COC(=O)c1ccc(NC(=O)c2ccc(NC(=O)c3ccc([N+](=O)[O-])c(OCc4ccccc4)n3)c(OCCCN)n2)c(OCCCN)n1` [ADH-41], for which the “rel. t50 of IAPP fibrillation” value in data set [2] is given as 0.8±0.2. For the same compound, the “hydrodynamic radii of Aβ42 particles” value in data set [3] (5 μM Aβ42, equimolar ratio, 24 h incubation) is recorded as 50-100 nm. Besides, in data set [3] (after 3 days), the “change in particle size of Aβ42-ADH-41 complex” value was “No change”. Besides, in data set [4] (absorbance at 351 nm, phosphate buffer pH 7.4), the “concentration range over which absorbance is linear” value lay in the range of 10 to 100 µM. Moreover, the “diameter (from volume) of compound particles by DLS” value in data set [4] (phosphate buffer (150 mM KCl, 50 mM NaPi, pH 7.4), 20° C.) was “below 10 nm”. The cell permeability entry in data set [5] is recorded as “good cell permeability”. Besides, in data set [6], the “conformation of Aβ12-28 (far UV-CD)” value is “strong α-helical conformation”. Further, the “effect on seed-catalyzed Aβ40 fibrillation” value in data set [7] is “completely arrested”. In addition, in data set [8], the “β-sheet formation of Aβ42 (far UV-CD)” value is on record as “No formation of β-sheet structure”.
